Here are results for 39 molecules from patent US6265402A, “Use of 2-phenylmorpholin-5-one derivatives” (Nikken Chemicals Co., Ltd., priority 1996, dated 2001).

The subject of the assay is Type IV PDE. Description: Type IV PDE inhibitory activity. As to conditions: Type IV PDE partially purified from rat neutrophils; 3H-cAMP substrate, 30° C., 30 minutes. It is filed as biochemical. As for the experimental part:
Type I, III, IV, and V PDE isozymes were prepared to study the PDE inhibitory activities of and selectivities with the compound of the invention [Trends Pharmacol Sci., 12, 19-27 (1992)]. Type I PDE was purchased from Sigma Corp. Type III, IV, and V PDE isozymes were partially purified from platelets (Type III and V) or neutrophils (Type IV) collected from rats. Each enzyme source was homogenized in a buffer (pH 6.5) containing 20 mM bisTris, 2 mM EDTA (i.e., ethylenediamine tetraacetate), 0.1 mM PMSF (i.e., phenylmethylsulfonyl fluoride), 5 mM 2-mercaptoethanol, 0.001 mM pepstatin and 0.01 mM leupeptin and was centrifuged at 30000×G for 30 minutes to obtain a supernatant, which was applied to an ion exchange column (Q-sepharose First Flow, Pharmacia Corp.) and was eluted with 0 to 1M sodium acetate. Partially purified isozymes were identified by observing the effects by conventional inhibitors.
Each PDE isozyme and the test compound dissolved in DMSO (i.e., dimethyl sulfoxide) were added to 50 mM Tris-HCl buffer containing 5 mM magnesium chloride. ^3 H-cAMP (for type III and IV PDE) or ^3 H-cGMP (for type I and V PDE) were added as substrates and were reacted at 30° C. for 30 minutes. The reaction was terminated by placing the test tube in boiling water of 100° C. for 5 minutes. The nucleotides formed by PDE were broken down by 5'-nucleotidase to ^3 H-adenosine or 3H-guanosine. The unreacted substrate and reaction product were separated through an ion-exchange column (i.e., QAE sephadex, Pharmacia Corp.) The eluted ^3 H-nucleoside was measured for its radioactivity by a liquid scintillation counter. The inhibitory activities of the compound of the present invention are shown by the IC50 value (M). Further, the inhibitory activities of the test samples against Type I, III, and V are 1/10 or less than that against type IV.
As a reminder, the IC50 is the concentration at which inhibition is half-maximal. Read a low IC50 as higher potency. With `COc1ccc(C2CNC(=O)CO2)cc1OCCCCCc1ccccc1` (stereo not drawn) [Compound No. 26, 2-[4-methoxy-3-(5-phenylpentyloxy)phenyl]morpholin-5-one], the half-maximal inhibitory concentration (IC50) was 0.62 µM.

Molecule `CCOC(=O)CN1CC(c2ccc(OC)c(OC3CCCC3)c2)OCC1=O` (stereo not drawn) [Compound No. 15, 2-(3-cyclopentyloxy-4-methoxyphenyl)-4-ethoxycarbonylmethylmorpholin-5-one] had a half-inhibitory concentration (IC50) of 7.9 µM.

`COc1ccc(C2CN(Cc3ccc4ccccc4n3)C(=O)CO2)cc1OC1CCCC1` (stereo not drawn) [Compound No. 18, 2-(3-cyclopentyloxy-4-methoxyphenyl)-4-(2-quinolylmethyl)morpholin-5-one]: half-maximal inhibition (IC50) was put at 0.45 µM.

`COc1ccc(C2CN(C)C(=O)CO2)cc1OCCC1Cc2ccccc2C1` (stereo not drawn) [Compound No. 51, 2-[3-[2-(2-indanyl)ethoxy]-4-methoxvphenyl]-4-methylmorpholin-5-one] registered an IC50 of 0.1 µM.

Take `CCCCN1CC(c2ccc(OC)c(OC3CCCC3)c2)OCC1=O` (stereo not drawn) [Compound No. 19, 4-butyl-2-(3-cyclopentyloxy-4-methoxyphenyl)morpholin-5-one]: the concentration for half-maximal inhibition (IC50) worked out at 5.9 µM.

For the molecule `CCN1CC(c2ccc(OC)c(OC3CCCC3)c2)OCC1=O` (stereo not drawn) [Compound No. 17, 2-(3-cyclopentyloxy-4-methoxyphenyl)-4-ethylmorpholin-5-one], the IC50 is 0.71 µM.

The molecule `COc1ccc(C2CN(C)C(=O)CO2)cc1OCC1CCC1` (stereo not drawn) [Compound No. 48, 2-(3-cyclobutylmethoxy-4-methoxyphenyl)-4-methylmorpholin-5-one] registered an IC50 of 0.38 µM.

In turn, `COc1ccc(C2CNC(=O)CO2)cc1OCc1ccccc1` (stereo not drawn) [Compound No. 3, 2-(3-benzyloxy-4-methoxyphenyl)morpholin-5-one] registered a 50% inhibitory concentration (IC50) of 28 µM.

The molecule `COc1ccc(C2CN(C)C(=O)CO2)cc1OCCCCCc1ccccc1` (stereo not drawn) [Compound No. 29, 2-[4-methoxy-3-(5-phenylpentyloxy)phenyl]-4-methylmorpholin-5-one] displayed an IC50 of 0.48 µM.

Turning to `COc1ccc(C2CNC(=O)CO2)cc1OC1CCCCC1` (stereo not drawn) [Compound No. 7, 2-(3-cyclohexyloxy-4-methoxyphenyl)morpholin-5-one], the 50% inhibitory concentration (IC50) came to 11 µM.

As to `COc1ccc(C2CN(C)C(=O)CO2)cc1OCCc1ccc(F)cc1` (stereo not drawn) [Compound No. 41, 2-[3-[2-(4-fluorophenyl)ethoxy]-4-methoxyphenyl]-4-methylmorpholin-5-one], it took 0.38 µM to reach half-maximal inhibition (IC50).

In turn, `COc1ccc(C2(C)CNC(=O)CO2)cc1OC1CCCC1` (stereo not drawn) [Compound No. 10, 2-(3-cyclopentyloxy-4-methoxyphenyl)-2-methylmorpholin-5-one] displayed a 50% inhibitory concentration (IC50) of 3 µM.

In the case of `COc1ccc(C2(c3ccccc3)CN(Cc3ccncc3)C(=O)CO2)cc1OC1CCCC1` (stereo not drawn) [Compound No. 23, 2-(3-cyclopentyloxy-4-methoxyphenyl)-2-phenyl-4-(4-pyridylmethyl)morpholin-5-one], it took 2.4 µM to reach half-maximal inhibition (IC50).

Turning to `COc1ccc(C2CN(C(C)=O)C(=O)CO2)cc1OC1CCCC1` (stereo not drawn) [Compound No. 20, 4-acetyl-2-(3-cyclopentyloxy-4-methoxyphenyl)morpholin-5-one], it took 2 µM to reach half-maximal inhibition (IC50).

In turn, `COc1ccc(C2CNC(=O)CO2)cc1OCCOCc1ccccc1` (stereo not drawn) [Compound No. 30, 2-[3-[2-(benzyloxy)ethoxy]-4-methoxyphenyl]morpholin-5-one] returned a concentration for half-maximal inhibition (IC50) of 5.7 µM.

As to `COc1ccc(C2(c3ccccc3)CNC(=O)CO2)cc1OC1CCCC1` (stereo not drawn) [Compound No. 11, 2-(3-cyclopentyloxy-4-methoxyphenyl)-2-phenylmorpholin-5-one], the concentration for half-maximal inhibition (IC50) amounted to 0.074 µM.

`CCN1CC(c2ccc(OC)c(OC3Cc4ccccc4C3)c2)OCC1=O` (stereo not drawn) [Compound No. 40, 4-ethyl-2-[3-(2-indanyloxy)-4-methoxyphenyl]morpholin-5-one] displayed a 50% inhibitory concentration (IC50) of 0.093 µM.

Molecule `COc1ccc(C2CNC(=O)CO2)cc1OC1Cc2ccccc2C1` (stereo not drawn) [Compound No. 6, 2-[3-(2-indanyloxy)-4-methoxyphenyl]morpholin-5-one] yielded an IC50 of 0.32 µM.

`COc1ccc(C2CN(C)C(=O)CO2)cc1OCCc1cccc2ccccc12` (stereo not drawn) [Compound No. 47] showed a concentration for half-maximal inhibition (IC50) of 0.3 µM.

Consider `COc1ccc(C2CNC(=O)CO2)cc1O[C@H]1CC[C@H](c2ccccc2)CC1` (relative stereo) [Compound No. 33, 2-[4-methoxy-3-(trans-4-phenylcyclohexyloxy)phenyl]morpholin-5-one], for which the IC50 turned out to be 7.2 µM.

Regarding `COc1ccc(C2CN(C)C(=O)CO2)cc1OCC1CCCC1` (stereo not drawn) [Compound No. 44, 2-(3-cyclopentylmethoxy-4-methoxyphenyl)-4-methylmorpholin-5-one], the IC50 was 0.77 µM.

`COc1ccc(C2CNC(=O)CO2)cc1OCC1(c2ccccc2)CC1` (stereo not drawn) [Compound No. 34, 2-[4-methoxy-3-[(1-phenylcyclopropyl)methoxy]phenyl]morpholin-5-one] showed an IC50 of 1.9 µM.

`COc1ccc(C2CN(C)C(=O)CO2)cc1OC` (stereo not drawn) [Compound No. 12, 2-(3.4-dimethoxyphenyl)-4-methylmorpholin-5-one] displayed an IC50 of 4.7 µM.

As for `COc1ccc(C2CN(Cc3ccncc3)C(=O)CO2)cc1OC1CCCC1` (stereo not drawn) [Compound No. 16, 2-(3-cyclopentyloxy-4-methoxyphenyl)-4-(4-pyridylmethyl)morpholin-5-one], inhibition was half-maximal at 5.5 µM (IC50).

In turn, `COc1ccc(C2(c3ccccc3)CNC(=O)CO2)cc1OC1Cc2ccccc2C1` (stereo not drawn) [Compound No. 24, 2-[3-(2-indanyloxy)-4-methoxyphenyl]-2-phenylmorpholin-5-one] gave a half-maximal inhibitory concentration (IC50) of 0.03 µM.

`COc1ccc(C2CNC(=O)CO2)cc1OCCc1ccccc1` (stereo not drawn) [Compound No. 4, 2-(4-methoxy-3-phenethyloxyphenyl)morpholin-5-one] came in with a half-inhibitory concentration (IC50) of 2.7 µM.

The molecule `COc1ccc(C2CN(C)C(=O)CO2)cc1OCC1CC1` (stereo not drawn) [Compound No. 52, 2-(3-cyclopropylmethoxy-4-methoxyphenyl)-4-methylmorpholin-5-one] showed an IC50 of 2.8 µM.

For `COc1ccc(C2(c3ccccc3)CN(C)C(=O)CO2)cc1OC1Cc2ccccc2C1` (stereo not drawn) [Compound No. 25, 2-[3-(2-indanyloxy)-4-methoxyphenyl]-4-methyl-2-phenylmorpholin-5-one], it took 0.11 µM to reach half-maximal inhibition (IC50).

In turn, `COc1ccc(C2CN(C)C(=O)CO2)cc1OCC(C)C` (stereo not drawn) [Compound No. 49, 2-[3-(2-methylpropoxy)-4-methoxyphenyl]-4-methylmorpholin-5-one] showed an IC50 of 0.35 µM.

In the case of `COc1ccc(C2CN(C)C(=O)CO2)cc1OC1Cc2ccccc2C1` (stereo not drawn) [Compound No. 21, 2-[3-(2-indanyloxy)-4-methoxyphenyl]-4-methylmorpholin-5-one], the half-inhibitory concentration (IC50) was found to be 0.044 µM.

`COc1ccc(C2CN(C)C(=O)CO2)cc1OCC1(C)CC1` (stereo not drawn) [Compound No. 43] registered a concentration for half-maximal inhibition (IC50) of 0.61 µM.

As to `COc1ccc(C2(c3ccccc3)CN(C)C(=O)CO2)cc1OC1CCCC1` (stereo not drawn) [Compound No. 22, 2-(3-cyclopentyloxy-4-methoxyphenyl)-4-methyl-2-phenylmorpholin-5-one], it took 0.25 µM to reach half-maximal inhibition (IC50).

The molecule `COc1ccc(C2CNC(=O)CO2)cc1OCCc1ccc(F)cc1` (stereo not drawn) [Compound No. 32, 2-[3-[2-(4-fluorophenyl)ethoxy]-4-methoxyphenyl]morpholin-5-one] yielded an IC50 of 1.7 µM.

Molecule `COc1ccc(C2CN(C)C(=O)CO2)cc1OCCOCc1ccccc1` (stereo not drawn) [Compound No. 46, 2-[4-methoxy-3-(2-benzyloxyethoxy)phenyl]-4-methylmorpholin-5-one] displayed an IC50 of 0.57 µM.

For the molecule `COc1ccc(C2CNC(=O)CO2)cc1OCCc1cccc2ccccc12` (stereo not drawn) [Compound No. 37, 2-[4-methoxy-3-[2-(1-naphthyl)ethoxy]phenyl]morpholin-5-one], half-maximal inhibition (IC50) required 2.7 µM.

Take `COc1ccc(C2CNC(=O)CO2)cc1OCCC1Cc2ccccc2C1` (stereo not drawn) [Compound No. 50, 2-[3-[2-(2-indanyl)ethoxy]-4-methoxyphenyl]morpholin-5-one]: it took 3.8 µM to reach half-maximal inhibition (IC50).

For the molecule `COc1ccc(C2CN(C)C(=O)CO2)cc1OCC1(c2ccccc2)CC1` (stereo not drawn) [Compound No. 42, 2-[3-[(1-phenylcyclopropyl)methoxy]-4-methoxyphenyl]-4-methylmorpholin-5-one], the midpoint of inhibition, the IC50, lay at 0.31 µM.

`COc1ccc(C2CN(C)C(=O)CO2)cc1O[C@H]1CC[C@H](c2ccccc2)CC1` (relative stereo) [Compound No. 45, 2-[4-methoxy-3-(trans-4-phenylcyclohexyloxy)phenyl]-4-methylmorpholin-5-one] yielded an IC50 of 0.58 µM.

`COc1ccc(C2(C)CN(C)C(=O)CO2)cc1OC1Cc2ccccc2C1` (stereo not drawn) [Compound No. 28, 2.4-dimethyl-2-[3-(2-indanyloxy)-4-methoxyphenyl]morpholin-5-one] came in with a half-inhibitory concentration (IC50) of 0.03 µM.
